Results published in US20180055877A1, “THERAPEUTIC NANOPARTICLES AND METHODS THEREOF” (priority 2014, published 2018).
Values after ≈ are worked out from the molar mass of the structure shown.

Tests used:
T. rubrum [1] = assay: aPI in the presence of ROS and RNS scavengers, CFU; format: cell-based; conditions: scavenger added before aPI with curcumin photosensitizer
Procedure: (§4) Different ROS and RNS scavengers were used to evaluate the effect of radical stress inhibition on aPI efficacy. […] Scavengers were added to fungal suspensions immediately before initiation of aPI and incubated for 1 h with RPMI 1640 without phenol red plus 2% glucose at 28° C. To evaluate fungal viability, 150 μL of the fungal suspensions were plated onto PDA, and incubated at 28° C. for 72 hours. The HT TitierTACS™ assay kit (Trevigen, Gaithersburg, Md., USA) was used to evaluate the occurrence of apoptosis after aPI.

[2] = test system: Pseudomonas aeruginosa, MRSA, Escherichia coli, Klebsiella pneumoniae; conditions: same concentration as generated from the nanoparticles; cited from earlier work
E. coli clinical strains = assay: Bacterial growth susceptibility (OD600), E. coli; format: cell-based; conditions: all concentrations tested, up to 24 h, vs untreated
Procedure: (§1) In this example, 8 clinical strains each of MRSA and E. coli were evaluated. For each bacterial strain, one colony of bacteria grown on tryptic soy agar (TSA) was suspended in 1 mL tryptic soy broth (TSB). One μL aliquots were transferred to a 100-well honeycomb plate with 199 μL TSB. This TSB contained either 1, 2.5, 5, or 10 mg/mL SNO-CAP-np, or 2.5, 5, or 10 mM captopril, and controls included wells containing bacteria and TSB alone. The background absorbance of each SNO-CAP-np concentration was accounted for by wells containing SNO-CAP-np and TSB alone. No background absorbance was measured for captopril. […] All wells were incubated for 24 hours at 37° C. and growth was assessed by measuring optical density at 600 nm (OD600) with a microplate reader (Bioscreen C, Growth Curves USA, Piscataway, N.J.). Each condition was measured in triplicate, and averages were calculated along with standard error of the mean (SEM).
(§2) E. coli and MRSA strains were incubated at 37° C. with and without various concentrations of SNO-CAP-np (1, 2.5, 5, or 10 mg/mL) or captopril ([…]) for 24 h. […] Each data set represents averages for 8 strains of either E. coli or MRSA, and conditions for each strain were measured in triplicate. […]

MRSA clinical strains = assay: Bacterial growth susceptibility (OD600), MRSA; format: cell-based; conditions: all concentrations tested, up to 24 h, vs untreated
Procedure: as §1, §2

E. coli = assay: Colony-forming units (CFU) assay, E. coli; format: cell-based; conditions: 24 h
Procedure: (§3) Following 24 h incubation of E. coli and MRSA, 10 μL aspirates from wells of the honeycomb plates were transferred to Eppendorf tubes with 990 μL PBS and gently vortexed. Controls were collected in the same fashion from wells containing only bacteria and TSB. The suspensions were serially diluted in PBS so that final concentrations were 10^−6 of the incubated concentration, and 100 μL aliquots were plated on TSA plates for 24 h. As with the absorbance assays, 8 clinical strains each of MRSA and E. coli were evaluated (data represents an average for the 8 strains each of E. coli and MRSA), and all conditions were measured in triplicate. CFU's were counted and recorded. Percent survival was determined by comparing CFU counts of SNO-CAP-np- or captopril-treated bacteria to CFU counts of untreated bacteria. P-value <0.05 by unpaired t-test was considered significant.

MRSA = assay: Colony-forming units (CFU) assay, MRSA; format: cell-based; conditions: 24 h
Procedure: as §3

T. rubrum microconidia = assay: Antimicrobial photodynamic inhibition (aPI) optimization, CFU; format: cell-based
Procedure: In this example, a curcumin (Sigma-Aldrich, St. […] For susceptibility testing, the stock was dilution in RPMI 1640 medium to a final concentration of 40 μg/mL. For aPI, the stock was diluted in PBS to concentrations of 1.0, 10 and 100 μg/mL. […] A comparative concentration of curcumin incorporated in nanoparticles was used based on spectrophotometric release curves showing that each mg of curc-np contained 10 μg of curcumin. For susceptibility testing, 8 mg of curc-np was suspended in 1 mL of PBS and diluted in RPMI to a final concentration of […] (equivalent to 40 μg/mL of encapsulated curcumin). For aPI, 10 mg of curc-np was suspended in 1 mL of PBS and serially diluted to obtain 10 μg/mL, 100 μg/mL and 10 mg/L of curc-np (equivalent to 1.0, 10, and 100 μg/mL of encapsulated curcumin). The light source used was BLU-U® light model 4070 (DUSA pharmaceuticals, Wilmington, Mass., USA), which emits blue light at a wavelength of 417±5 nm. The doses used were 10 J/cm^2 (17 minutes), 20 J/cm^2 (34 minutes), and 40 J/cm^2 (68 minutes). BLU-U light was chosen as the light source due to its resonance with curcumin. For aPI optimization, fungal cells were submitted to different treatment conditions by varying the photosensitizer (PS) concentration and light dose, as described in Table 1, below. PS without photoactivation and blue light alone served as dark toxicity and light controls, respectively. […] [table]

T. rubrum [3] = assay: Susceptibility testing (microdilution, CLSI M38-A) and growth curves; format: cell-based
Procedure: Susceptibility of T. rubrum to ground-state curcumin was tested by a microdilution method according to CLSI M38-A.49, 52 Itraconazole concentration ranged from 0.015 μg/mL to 8 μg/mL and curcumin and curc-np concentrations from 0.0012 μg/mL to 20 μg/mL. A 1% DMSO solution in control medium was evaluated. The MIC value was defined as the concentration required for 80% […] compared to untreated control. 12, 49 Growth kinetics of ground-state curcumin compared to aPI was also evaluated. Growth was evaluated for 7 days at 28° C. using a Bioscreen C growth curve system (Growth Curves USA, Piscataway, N.J., USA).

T. rubrum [4] = assay: Intracellular ROS and RNS after aPI, flow cytometry; format: cell-based; conditions: vs untreated
Procedure: Following aPI, samples were incubated with fluorescent probes for 30 minutes at 28° C., and subsequently analyzed with flow cytometry (Becton Dickinson™ LSRII, USA) using a 530/30 nm band pass filter for fluorescence detection. The Mean Fluorescence Intensity (MFI) was considered to determine radical production. Data analyses were performed using FlowJo 10.1 software.

T. rubrum cells = assay: Apoptosis assay after aPI (HT TitierTACS kit); format: cell-based; conditions: vs untreated control
Procedure: as §4

[5] = test system: J774.16 macrophages challenged with T. rubrum; assay: Phagocytosis assay: J774.16 macrophages challenged with T. rubrum and treated with aPI; format: cell-based
Procedure: Macrophages were challenged with T. rubrum and treated with aPI to investigate the efficacy against infected mammalian cells. Specifically, J774.16 macrophages were grown at 37° C. with 10% CO2 in DMEM (Cellgro, Manassas, Va., USA). The fungal-macrophage cell proportion was 1:1, with 5.0×10^5 fungal cells to 5.0×10^5 macrophage cells. After challenging macrophages with T. rubrum microconidia, the cells were submitted to aPI, followed by incubation in the 10% CO2 chamber at 37° C. for 24 hours. The macrophages were lysed with cold distilled water and the lysate plated onto PDA and incubated at 28° C. for 72 hours.

T. rubrum [6] = assay: In vivo antimicrobial photodynamic therapy (aPDT) pilot study; parameters: species or system BALB/c mice; conditions: 500 μg/mL in coconut oil, 10 J/cm^2 blue light, one treatment, CFU three days post treatment
Procedure: BALB/c mice were subcutaneously infected with T. rubrum. Seven days post-infection, mice (n=2 per group) were submitted to one treatment of aPDT, using 500 μg/mL of curcumin and curc-np suspended in coconut oil and 10 J/cm^2 of blue light. Pre-irradiation incubation time was 30 minutes, under light protection. Tissue was homogenized and CFUs quantified three days post treatment.

With `OC[C@@H](O)[C@@H](O)[C@H](O)[C@H](O)CO` [D-mannitol] the “inhibition of aPI efficacy by scavenger (fungal growth, CFU)” value (from here on “inhibition of aPI efficacy by scavenger”) (T. rubrum [1]) was “none of the concentrations”.
For `Cl.O=S(=O)([O-])c1ccc(-c2c3nc(c(-c4ccc(S(=O)(=O)O)cc4)c4ccc([nH]4)c(-c4ccc(S(=O)(=O)O)cc4)c4nc(c(-c5ccc(S(=O)(=O)O)cc5)c5ccc2[nH]5)C=C4)C=C3)cc1.[Fe]` [FeTPPs, 5,10,15,20-tetrakis-(4-sulfonatophenyl)-porphyrinato iron (III) chloride], the “inhibition of aPI efficacy by scavenger” value (T. rubrum [1]) was “T. rubrum growth was relatively intact despite aPI”.
For `N[C@@H](CCC(=O)N[C@@H](CSN=O)C(=O)NCC(=O)O)C(=O)O` [GSNO, S-nitrosoglutathione], the “antibacterial activity of an aliquot” value [2] is given as “no antibacterial activity was observed”.
With `O.O=S(=O)([O-])c1cc(O)c(O)c(S(=O)(=O)[O-])c1.[Na+].[Na+]` [Tiron, 4,5-dihydroxy-1,3-benzenedisulfonic acid disodiumsalt hydrate] the “inhibition of aPI efficacy by scavenger” value (T. rubrum [1]) was “none of the concentrations”.
With `C[C@H](CS)C(=O)N1CCC[C@H]1C(=O)O` [captopril] the “effect on E. coli growth (OD600)” value (E. coli clinical strains) was “showed an effect on E. coli growth in a dose dependent fashion”, the “effect on MRSA growth (OD600)” value (MRSA clinical strains) was “did not have an effect” and the “average E. coli survival compared with untreated controls” value (E. coli; 2.5 mM) was 85%. For the same molecule, the “average E. coli survival compared with untreated controls” value (E. coli; 5 mM) was 83.6%, the “average E. coli survival compared with untreated controls” value (E. coli; 10 mM) was 59.1% and the “average MRSA survival compared with untreated controls” value (MRSA; 2.5 mM) was 99.3%. The “average MRSA survival compared with untreated controls” value (MRSA; 5 mM) was 95.6% and the “average MRSA survival compared with untreated controls” value (MRSA; 10 mM) was 69.5%.
For `CC1(C)N([O])C(c2ccc(C(=O)O)cc2)=[N+]([O-])C1(C)C` [carboxy-PTIO], the “inhibition of aPI efficacy by scavenger” value (T. rubrum [1]) was “T. rubrum growth was relatively intact despite aPI”.
For `COc1cc(/C=C/C(=O)CC(=O)/C=C/c2ccc(O)c(OC)c2)ccc1O` [curcumin], the “fungal viability (CFU) after aPI, lowest PS concentration” value (T. rubrum microconidia; 0.1 μg/mL, blue light 40 J/cm^2) was “did not differ significantly from untreated control”, the “T. rubrum growth (CFU) after aPI at varying light dose” value (T. rubrum microconidia; 10 μg/mL, blue light 10, 20 and 40 J/cm^2) was “completely inhibited T. rubrum growth” and the “fungal growth (CFU) after aPI, highest concentration” value (T. rubrum microconidia; 10 μg/mL, blue light 40 J/cm^2) was “complete growth inhibition”. The “fungal viability (CFU) after aPI” value (T. rubrum microconidia; 1.0 and 10 μg/mL, blue light 40 J/cm^2, vs untreated) was “significantly decreased fungal viability”, the “fungal burden, PS without photoactivation (dark toxicity)” value (T. rubrum microconidia; three concentrations tested, no light) was “did not reduce fungal burden” and the “fungal growth reduction, ground-state (no photoactivation)” value (T. rubrum [3]; seven-day incubation, 0.0012-20 μg/mL) was “did not yield significant 80% reduction of fungal growth”. For the same molecule, the “fold change in NO. production” value (T. rubrum [4]; DAF-FM probe) was 6 fold, the “fold-change in ONOO. production” value (T. rubrum [4]; DHR 123 probe) was 7 fold and the “fold-change in ROS production” value (T. rubrum [4]; H2DCFDA probe) was 17 fold. For the same molecule, the “apoptosis of T. rubrum cells after irradiation with blue light” value (T. rubrum cells) was “significant trend towards increased apoptosis”, the “apoptosis of T. rubrum cells without irradiation” value (T. rubrum cells) was “did not induce apoptosis” and the “macrophage-induced destruction of T. rubrum cells, no aPI” value ([5]; ground state) was “caused a decrease in macrophage-induced destruction of T. rubrum cells”. For the same molecule, the “fungal burden (CFU) in macrophages after aPI” value ([5]; vs untreated, dark toxicity and blue light controls) was “significantly reduced fungal burden” and the “fungal burden compared to untreated control” value (T. rubrum [6]) was “did not significantly reduce fungal burden”.
For `CCC(C)n1ncn(-c2ccc(N3CCN(c4ccc(OCC5COC(Cn6cncn6)(c6ccc(Cl)cc6Cl)O5)cc4)CC3)cc2)c1=O` (centres unmarked) [itraconazole], the MIC (T. rubrum [3]; Trichophyton rubrum, clinical T. rubrum strain) was 0.25 µg/mL (≈ 0.354 µM).
For `CC(=O)C(=O)[O-].[Na+]` [sodium pyruvate], the “inhibition of aPI efficacy by scavenger” value (T. rubrum [1]) was “none of the concentrations”.
